Assay results taken from patent US8404460B2, “Method for detecting and/or identifying Clostridium difficile” (Biomerieux, priority 2008, dated 2013).

How the values were obtained:
Clostridium difficile [1] = test: Example 3: Colombia base media with a chromogenic beta-glucosidase substrate and 300 mg/l ammoniacal iron citrate; format: cell-based; design: key to diffusion of the coloration: *: diffusion of trie coloration; details: Clostridium difficile strains, 48 h; for Co = coloration / Gr = growth: Colombia base, 300 mg/l ammoniacal iron citrate
Clostridium difficile [2] = test: Example 2: egg yolk base media each containing a chromogenic beta-glucosidase substrate, growth and coloration of strains; format: cell-based; details: for Co = coloration / Gr = growth: Clostridium difficile strains, 48 h, egg yolk base; for sensitivity with respect to Clostridium difficile: Example 2, 48 h
Other Clostridium = format: cell-based, Clostridium spp
Clostridium difficile [3] = test: Example 5: two prototype media for C. difficile, % of strains producing a coloration; format: cell-based
Method: (§1) 107 strains were tested on two prototype media for C. difficile, the compositions of which are the following (per liter):
(§2) The inoculation is carried out from precultures prepared for 48 h at 37° C. under anaerobic conditions.
(§3) A suspension in physiological saline at 0.5 McF is prepared and then the strains are inoculated using a 10 μl calibrated loop.
(§4) The readings are carried out after incubation for 24 and 48 hours at 37° C.

[4] = system: strains other than Clostridium difficile; test: Example 5: selectivity of the medium, growth of strains other than Clostridium difficile; format: cell-based
Method: as §1, §2, §3, §4

[5] = system: C. difficile strains 042, 308, 169, 187; test: Example 4: five CHE-beta-glucoside media with varying esculin and glucose, colony diameter and coloration strength; format: cell-based, Clostridium difficile; details: Example 4, according to medium 2
Method: Five media, each containing 48.10 g/l of Columbia base, 2.5 g/l of sodium taurocholate, 200 mg/l of ammoniacal iron citrate, 100 mg/l of CHE-beta-glucoside, and also an inhibitor system normally used in the media for Clostridium difficile, based on D-cycloserine, and varying concentrations of esculin and glucose (see following table):
as §2, §3
The readings are carried out after incubation for 24 hours at 37° C.
For Growth: • The values indicated correspond to the diameter of the colonies.
For Coloration Strength: • 1 corresponds to the presence of a clear coloration of weak strength, • 1.5 corresponds to the presence of a coloration that is intermediate between colorations 1 and 2, • 2 corresponds to the presence of a clear coloration of medium strength, • 2.5 corresponds to the presence of a coloration that is intermediate between colorations 2 and 3, • 3 corresponds to the presence of a strong coloration.

[6] = substrate 300 mg/l +500 mg/l of ammoniacal iron citrate
[7] = substrate 300 mg/l +50 mg of ammoniacal iron citrate

5-bromo-3-indoxyl-β-glucoside [Blue-β-glucoside]
diffusion of the coloration (Clostridium difficile [1]; Blue substrate 300 mg/l): *
Co = coloration (Clostridium difficile [1]; Blue substrate 300 mg/l): 10/10
Gr = growth (Clostridium difficile [1]; Blue substrate 300 mg/l): 10/10

5-bromo-6-chloro-3-indoxyl-β-glucoside [Magenta-β-glucoside]
Co = coloration (Clostridium difficile [2]; substrate 80 mg/l): 16/18
Gr = growth (Clostridium difficile [2]; substrate 80 mg/l): 18/28
sensitivity with respect to Clostridium difficile (Clostridium difficile [2]): good sensitivity
Co = coloration (Other Clostridium): 6/17
Gr = growth (Other Clostridium): 17/17

OC[C@H]1O[C@@H](Oc2cccc3cccnc23)[C@H](O)[C@@H](O)[C@@H]1O [8-Hydroxyquinoline-β-glucoside, 8-hydroxyquinoline-β-glucoside]
Co = coloration (Clostridium difficile [1]; substrate 150 mg/l): 5/10
Gr = growth (Clostridium difficile [1]; substrate 150 mg/l): 10/10

O=C1c2ccccc2C(=O)c2c1ccc(O[C@@H]1O[C@H](CO)[C@@H](O)[C@H](O)[C@H]1O)c2O [Alizarin-β-glucoside, 1,2-dihydroxyanthraquinone-β-glucoside]
Co = coloration (Clostridium difficile [2]; substrate 50 mg/l): 18/22
Gr = growth (Clostridium difficile [2]; substrate 50 mg/l): 22/28
sensitivity with respect to Clostridium difficile (Clostridium difficile [2]): good sensitivity
Co = coloration (Other Clostridium): 2/16
Gr = growth (Other Clostridium): 16/17
Co = coloration (Clostridium difficile [1]; substrate 50 mg/l): 8/10
Gr = growth (Clostridium difficile [1]; substrate 50 mg/l): 10/10

O=c1oc2cc(O)c(O[C@@H]3O[C@H](CO)[C@@H](O)[C@H](O)[C@H]3O)cc2c2c1CCCC2 [CHE-β-glucoside, 3,4-cyclohexenoesculetin-β-glucoside]
Co = coloration (Clostridium difficile [2]; [6]): 20/21
Gr = growth (Clostridium difficile [2]; [6]): 21/28
sensitivity with respect to Clostridium difficile (Clostridium difficile [2]): good sensitivity
Co = coloration (Other Clostridium): 6/17
Gr = growth (Other Clostridium): 17/17
sensitivity with respect to Clostridium difficile (Clostridium difficile [3]; Example 5, from 24 h onward): good sensitivity
strains of Clostridium difficile revealed (Clostridium difficile [3]; from 24 h onward, with a minimum of false positives): ~90%
specificity with respect to Clostridium difficile [4]: good specificity

O=c1ccc2cc(O[C@@H]3O[C@H](CO)[C@@H](O)[C@H](O)[C@H]3O)c(O)cc2o1 [esculin, esculetin-β-glucoside]
effect on the strength of the coloration [5]: positive effect

dihydroxyflavone-β-glucoside [DHF-β-glucoside]
Co = coloration (Clostridium difficile [2]; [7]): 20/28
Gr = growth (Clostridium difficile [2]; [7]): 28/28
Co = coloration (Other Clostridium): 3/12
Gr = growth (Other Clostridium): 12/14
Co = coloration (Clostridium difficile [1]; substrate 300 mg/l): 10/10
Gr = growth (Clostridium difficile [1]; substrate 300 mg/l): 10/10
